Reference: US20050266577A1, “Ultrafiltration device for drug binding studies” (Millipore Corporation, priority 2002, published 2005)
Like-named read-outs stand apart in the source and are kept apart here.

Assays:
[1] = 10 nanomolar CE concentration in phosphate buffered saline
Description: Microcon® Device Preparation:
The membrane to be tested was cut with the appropriate die cutter for the diameter of the device. The assembly consisted of placing the membrane on the support followed by addition of a gasket.
The collar is then placed on top of the assembly and sealed at a pressure varying from 65 to 100 psi.
Radioactive Analyte Preparation:
In order to prepare the analyte we used the following equation: [Concentration of Analyte]×[Volume needed for the experiment in microliter]×[Specific activity (Ci/mol)]×[1/Concentration (Ci/µl)].
The required volume of analyte was added to an appropriate volume of PBS. 200 µl of this preparation was used per sample.
Each membrane was tested in triplicate.
A first control plate, a Multiscreen® 96 well plate containing a heat sealed UPE (ultrahigh molecular weight polyethylene) composite cellulosic UF membrane, was used in a binding study.

[2] = Non-specific binding, second control plate with ultrafiltrate diluent added; conditions: 10 nanomolar CE in phosphate buffered saline
Description: Each membrane was tested in triplicate. Each Microcon® device was placed in the appropriately labeled retentate/filtrate vial. If the membrane to be tested needed to be pre-wetted before proceeding with this process, one needed to be sure that the membrane received a final rinse with PBS prior to testing. 200 µl of analyte solution was added to each Microcon® device and spun to dryness (20-30 minutes) in a microcentrifuge (14000-×g). The membranes were rinsed by adding 25 µl to each device and spun in the microcentrifuge (14000-×g) for 10 minutes.
To determine the amount of non-specific binding to the membrane, the collar and gasket were removed and the membrane placed in a glass scintillation vial. Three ml of scintillation cocktail was added to each vial. A 20 µl aliquot of the original solution was added to 3 ml of scintillation cocktail for reference. Radioactivity (in DPM) was determined by liquid scintillation counting using 1 minute counting periods and a stored quench curve as described by the equipment manufacturer.
The ratio of radioactivity found on the membrane compared to the total amount of radioactivity added was reported as a percentage and was used to assess CE NSB of the membrane being tested.

[3] = No support, table after second control plate (ultrafiltrate diluent)
[4] = Support: UPE composite, second control plate, ultrafiltrate diluent added

| Structure (SMILES) | % Non Specific Binding ([1]; No support) [%] | % Non Specific Binding ([1]; Support: Non-woven 1) [%] | % Non Specific Binding ([1]; Support: Non-woven 2) [%] | % Non Specific Binding ([1]; Support: UPE composite) [%] | % Non Specific Binding [2, 3] [%] | % Non Specific Binding [2, 4] [%] |
| --- | --- | --- | --- | --- | --- | --- |
| C[C@H]1O[C@@H](O[C@H]2[C@@H](O)C[C@H](O[C@H]3[C@@H](O)C[C@H](O[C@H]4CC[C@@]5(C)[C@H](CC[C@@H]6[C@@H]5C[C@@H](O)[C@]5(C)[C@@H](C7=CC(=O)OC7)CC[C@]65O)C4)O[C@@H]3C)O[C@@H]2C)C[C@H](O)[C@@H]1O [digoxin] | 3 | 3 | 2 | 47 | 3 | 92 |
| OC[C@@H](O)[C@@H](O)[C@H](O)[C@H](O)CO [mannitol] | 2 | 2 | 1 | 1 | 1 | 2 |
| CN(Cc1cnc2nc(N)nc(N)c2n1)c1ccc(C(=O)N[C@@H](CCC(=O)O)C(=O)O)cc1 [methotrexate] | 4 | 0 | 3 | 16 |  |  |
| CC(C)NCC(O)COc1cccc2ccccc12 (centres unmarked) [proprananol] | 4 | 0 | 2 | 61 |  |  |
| C[C@]12CC[C@H]3[C@@H](CCC4=CC(=O)CC[C@@]43C)[C@@H]1CC[C@@H]2O [testosterone] | 4 | 1 | 1 | 101 | 3 | 80 |
